Reference: article PMC8174488, “4-Arylthiosemicarbazide derivatives as a new class of tyrosinase inhibitors and anti-Toxoplasma gondii agents” (Journal of Enzyme Inhibition and Medicinal Chemistry, 2021)
Values joined by “and” are separate entries in the source; they are usually repeats but may differ in a detail not shown here. Identical values can stand only once. Like-named read-outs stand apart in the source and are kept apart here.

Tests used:
[1] = tested on: Toxoplasma gondii; details: Toxoplasma gondii proliferation; cited from earlier work
[2] = tested on: L929 cells; test: Cell viability assay (MTT, ISO 10993-5) on L929 mouse fibroblasts; assay type: cell-based; details: 24 h, concentration for 30% inhibition of cell proliferation
Source text: First, we evaluated the cytotoxic effects of 1b–9b, which is necessary prior to measuring anti-Toxoplasma and Tyr inhibition in order to exclude cytotoxic compounds. […] Cytotoxicity was estimated using mouse fibroblast (L929) cells line via MTT assay, according to the international standards ISO 10993–5:2009(E). […] Therefore, the obtained results were expressed as CC30, which was defined as the highest concentration of the compound that causes 30% damage of cells and was considered according to ISO as non-toxic.
The L929 mouse fibroblast (ATTC® CCL-1™, Manassas, VA) was routinely maintained in RPMI 1640 media (R8758, Sigma-Aldrich, Suffolk, UK), supplemented with 10% foetal bovine serum (Foetal Bovine Serum, ATCC® 30–2020™), 100 I.U./mL penicillin and 100 µg/mL streptomycin (Penicillin-Streptomycin Solution ATCC® 30–2300™). Cells were trypsinised (Trypsin-EDTA Solution, 1X ATCC® 30–2101™) twice a week and seeded at a density of 1 × 10^6 per T25 cell culture flask and incubated at 37 °C and 10% CO2 to achieve a confluent monolayer.
(§1) Cell viability assay was performed according to international standards (ISO 10993–5:2009(E)), using tetrazolium salt (MTT, Sigma-Aldrich) and mouse fibroblasts L929 cells. Culture medium RPMI 1640, without phenol red (Biowest, Nuaille, France) supplemented with 10% FBS, 2 mM L-glutamine (Sigma-Aldrich), 100 I.U./mL penicillin, 100 µg/mL streptomycin were used. Briefly, 1 × 10^4/well of L929 cells were placed in 96-well plates and incubated for 24 h at 37 °C and 10% CO2. Afterwards, the old culture medium was replaced with 100 µL of the compound, drug or inhibitor, diluted in culture medium, and the cells treated for 24 h. Additionally, cells were treated with 0.03–4.0% concentration of DMSO as the solvent (data not shown). Then, 50 µL of 1 mg/mL of MTT solution in RPMI 1640 without phenol red was added to each well and incubated for 2 h at 37 °C and 10% CO2. Next, cell culture medium was aspirated carefully and 150 µL of DMSO was added to each well, and the plates were gently mixed. Then, 25 µL 0.1 M glycine buffer (pH 10.5) (Sigma-Aldrich) was added. The optical density at 570 nm using a multi-mode microplate reader SpectraMax® i3 (Syngen, Taipei City, Taiwan) was recorded. The results were expressed as a percentage of viability compared to untreated cells. All experiments were performed in triplicate. Cytotoxicity assay using human fibroblast Hs27 cells was also performed as described above (included in Supplementary Material).

[3] = tested on: T. gondii RH strain; test: Antiparasitic assay: T. gondii RH proliferation in Hs27 cells, [3H]uracil incorporation; assay type: cell-based, Toxoplasma gondii; details: for IC50: Toxoplasma gondii, HS27; for SR (selectivity ratio): ratio of CC30 (L929) to IC50Tg
[4] = target: T1, Tyr from mushrooms (Agaricus bisporus, UniProt C7FF04); test: Inhibition of tyrosinase activity assay (screening at 25 µM); assay type: biochemical, mushroom; details: for inhibition at 25 µM: read-out: Tyrosinase inhibition, at 25 µM compound, L-tyrosine substrate, 10 U Tyr, 30 min; for Tyrosinase inhibition: at 25 µM compound, L-tyrosine substrate, 10 U Tyr, 30 min
Protocol: In our study, we used Tyr from mushrooms (T3824, Sigma) for all experiments. All compound dilutions, L-tyrosine a Tyr substrate, and Tyr were prepared in 50 mM phosphate buffer (pH 6.5). […] 100% Tyr activity we used for the sample without addition compound/inhibitor. […] The average results from three experiments are shown.

[5] = target: T1, Tyr from mushrooms; test: Kinetic analysis of the inhibition of tyrosinase (Lineweaver-Burk, Dixon, [L-tyrosine]/V vs [I] plots); assay type: biochemical, mushroom; details: for character of inhibition: Lineweaver–Burk plots; for Ki: Dixon plots; for IC50: plots of [L-tyrosine]/V vs [I]
Protocol: Therefore, these compounds were subsequently subjected to detailed kinetic studies to evaluate inhibition parameters. […] Dixon plots (Figure 7) were used in evaluating the KI values, while the plots of [L-tyrosine]/V vs. [I] (Figure 8), were employed to determine IC50Tyr[50]. [I] represents the concentration of the inhibitor. Rates were monitored spectrophotometrically by detecting changes in absorbance at 492 nm.
Solutions containing 80 µL of 0.625, 1.25, or 2.5 mM L-tyrosine and 50 µL of 20, 100, or 200 µM inhibitor were added to a 96-well plate. Then, solution containing 70 µL of Tyr (10 U) was added and the initial rate of dopachrome formation was determined through detecting the increase in absorbance at the wavelength of 492 nm (Δ492/min). […] In order to determine the inhibition constants KI the Dixon plots were constructed, whereas the plots of [L-tyrosine]/V vs. inhibitor concentration [I] were used for IC50Tyr evaluation. The results from three experiments are shown.

[6] = tested on: T. gondii tachyzoites RH-GFP strain; test: Influence of compounds during Toxoplasma growth, assay A (compounds present only during penetration); assay type: cell-based, Toxoplasma gondii; details: compound at IC50Tg for 3 h during penetration, then 24 h free medium, Hs27 cells, vs untreated cells
[7] = tested on: T. gondii tachyzoites RH-GFP strain; test: Influence of compounds during Toxoplasma growth, assay B (compounds present 24 h after penetration); assay type: cell-based, Toxoplasma gondii; details: 3 h infection without compound, then compound at IC50Tg for 24 h, Hs27 cells, vs untreated cells
[8] = tested on: Hs27 cell line; test: Cytotoxicity assay (MTT) on human fibroblast Hs27 cells; assay type: cell-based
Protocol: as §1

[9] = tested on: T. gondii RH strain; design: method as in PMID 30744161, PMID 31022878; details: 50% inhibition of T. gondii proliferation in vitro; reported previously, listed for comparison; cited from earlier work
[10] = tested on: L929 cells; details: cited from earlier work

T1 sequence (G1K3P4 entry or part of it): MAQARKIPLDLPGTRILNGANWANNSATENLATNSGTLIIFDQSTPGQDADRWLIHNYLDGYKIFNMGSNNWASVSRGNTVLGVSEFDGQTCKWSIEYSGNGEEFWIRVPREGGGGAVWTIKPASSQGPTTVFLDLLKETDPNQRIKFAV
T1 sequence (C7FF04 1-392): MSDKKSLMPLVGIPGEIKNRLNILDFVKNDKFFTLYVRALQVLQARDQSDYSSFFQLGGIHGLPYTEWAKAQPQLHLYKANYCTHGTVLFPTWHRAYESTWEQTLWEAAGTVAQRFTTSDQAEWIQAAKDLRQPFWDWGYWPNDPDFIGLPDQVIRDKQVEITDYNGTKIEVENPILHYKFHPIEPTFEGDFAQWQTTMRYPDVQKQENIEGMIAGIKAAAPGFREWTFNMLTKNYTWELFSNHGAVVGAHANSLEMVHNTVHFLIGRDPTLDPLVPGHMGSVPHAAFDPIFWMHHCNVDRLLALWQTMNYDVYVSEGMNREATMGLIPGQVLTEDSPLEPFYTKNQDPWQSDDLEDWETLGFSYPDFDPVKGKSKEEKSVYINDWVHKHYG

melting point	SMILES	CC30 [2]	IC50 [3]	SR (selectivity ratio) [3]	CC30 ([8]; Hs27 cell line, MTT)	CC30 [8]	IC50 [9]	CC30 [10]	also measured
–	Nc1ccc(S(=O)(=O)Nc2ncccn2)cc1 [sulfadiazine]	–	–	–	–	–	–	–	IC50 [1]: ~8500 µM
–	Cc1nc[nH]c1C(=O)NNC(=S)Nc1cccc(I)c1 [Compound 6a]	–	–	–	–	209.45 µM	25.7 µM	–	Tyrosinase inhibition [4]: 48.9 ± 3.0%; Ki [5]: 12.4 µM; character of inhibition [5]: mixed character of inhibition; IC50 [5]: 37.4 µM; number of infected cells (infection index) [6]: significant reduction; number of tachyzoites per PV [6]: significant reduction; number of tachyzoites per PV [7]: significant reduction; percentage of infected cells [7]: not observable
–	COc1ccccc1NC(=S)NNC(=O)c1[nH]cnc1C [Compound 7a]	–	–	–	–	498.12 µM	108 µM	452.06 µM	–
–	CCc1nc(N)nc(N)c1-c1ccc(Cl)cc1 [Pyrimethamine (PYR), Pyrimethamine, reference compound]	181.97 µM	11.5 µM	15.85	–	–	–	–	–
–	Cc1nc[nH]c1C(=O)NNC(=S)Nc1ccc([N+](=O)[O-])cc1 [Compound 2a]	–	–	–	–	697.67 µM	67.5 µM	–	Tyrosinase inhibition [4]: 46.4 ± 3.6%; Ki [5]: 9.35 µM; character of inhibition [5]: mixed character of inhibition; IC50 [5]: 38.3 µM; number of infected cells (infection index) [6]: significant reduction; number of tachyzoites per PV [6]: significant reduction; number of tachyzoites per PV [7]: significant reduction; percentage of infected cells [7]: not observable
–	O=c1cc(CO)occ1O [Kojic acid (KA), Kojic acid, reference compound]	1558.28 µM	501 µM	–	> 2500 µM	–	–	–	CC30 ([2]; listed as KA): 1558.0 µM; number of tachyzoites per PV [6]: significant reduction; number of tachyzoites per PV [7]: significant reduction; percentage of infected cells [7]: not observable
–	Cc1nc[nH]c1C(=O)NNC(=S)Nc1ccccc1Cl [Compound 3a]	–	–	–	–	502.21 µM	115 µM	462.12 µM	–
176 to 178 °C	COc1ccccc1NC(=S)NNC(=O)C1CCCC1 [Compound 7b, 1-Cyclopentanoyl-4–(2-methoxyphenyl)thiosemicarbazide]	886.29 µM	327 µM	2.71	> 1000 µM	–	–	–	–
–	Cc1ccc(NC(=S)NNC(=O)c2[nH]cnc2C)cc1 [Compound 8a]	–	–	–	–	421.89 µM	199 µM	361.73 µM	–
178 to 180 °C	O=C(NNC(=S)Nc1ccccc1Cl)C1CCCC1 [Compound 3b, 4–(2-Chlorophenyl)-1-cyclopentanoylthiosemicarbazide]	554.73 µM	368 µM	1.51	512.31 µM	–	–	–	–
178 to 180 °C	O=C(NNC(=S)Nc1cc(F)ccc1F)C1CCCC1 [Compound 9b, 1-Cyclopentanoyl-4–(2,5-difluorophenyl)thiosemicarbazide]	860.66 µM	321 µM	2.68	> 1000 µM	–	–	–	–
182 to 184 °C	O=C(NNC(=S)Nc1ccccc1I)C1CCCC1 [Compound 5b, 1-Cyclopentanoyl-4–(2-iodophenyl)thiosemicarbazide]	333.25 µM	128 µM	2.60	369.69 µM	–	–	–	–
–	Cc1nc[nH]c1C(=O)NNC(=S)Nc1ccccc1I [Compound 5a]	–	–	–	–	278.72 µM	50.6 µM	253.17 µM	–
–	Cc1nc[nH]c1C(=O)NNC(=S)Nc1cccc([N+](=O)[O-])c1 [Compound 1a]	–	–	–	–	479.22 µM	46.1 µM	440.95 µM	–
175 to 177 °C	Cc1ccc(NC(=S)NNC(=O)C2CCCC2)cc1 [Compound 8b, 1-Cyclopentanoyl-4–(4-methylphenyl)thiosemicarbazide]	463.37 µM	181 µM	2.55	445.10 µM	–	–	–	–
–	Cc1nc[nH]c1C(=O)NNC(=S)Nc1ccccc1Br [Compound 4a]	–	–	–	–	728.41 µM	78.1 µM	579.61 µM	–
134 to 136 °C	O=C(NNC(=S)Nc1cccc([N+](=O)[O-])c1)C1CCCC1 [Compound 1b, 1-Cyclopentanoyl-4–(3-nitrophenyl)thiosemicarbazide]	616.52 µM	180 µM	3.43	603.98 µM	–	–	–	–
–	Cc1nc[nH]c1C(=O)NNC(=S)Nc1cc(F)ccc1F [Compound 9a]	–	–	–	–	612.48 µM	172 µM	509.11 µM	–
179 to 181 °C	O=C(NNC(=S)Nc1ccccc1Br)C1CCCC1 [Compound 4b, 4–(2-Bromophenyl)-1-cyclopentanoylthiosemicarbazide]	806.60 µM	218 µM	3.70	> 1000 µM	–	–	–	–

SMILES	melting point	CC30 [2]	IC50 [3]	SR (selectivity ratio) [3]	CC30 ([8]; Hs27 cell line, MTT)	CC30 [8]	IC50 [9]	CC30 [10]	also measured
O=C(NNC(=S)Nc1cccc(I)c1)C1CCCC1 [Compound 6b, 1-Cyclopentanoyl-4–(3-iodophenyl)thiosemicarbazide]	173 to 175 °C	117.68 µM	54.5 µM	2.16	135.87 µM	–	–	–	inhibition at 25 µM [4]: 43.9 ± 3.4%; character of inhibition [5]: mixed character of inhibition; number of infected cells (infection index) [6]: significant reduction; number of tachyzoites per PV [6]: significant reduction; number of tachyzoites per PV [7]: significant reduction; percentage of infected cells [7]: not observable
O=C(NNC(=S)Nc1ccc([N+](=O)[O-])cc1)C1CCCC1 [Compound 2b, 1-Cyclopentanoyl-4–(4-nitrophenyl)thiosemicarbazide]	170 to 172 °C	378.39 µM and 378.4 µM	144 µM	2.63	405.09 µM	–	–	–	inhibition at 25 µM [4]: 45.6 ± 2.8%; character of inhibition [5]: mixed character of inhibition; number of infected cells (infection index) [6]: significant reduction; number of tachyzoites per PV [6]: significant reduction; number of tachyzoites per PV [7]: significant reduction; percentage of infected cells [7]: not observable
